Tests used:
BtGH84 [1] = biological target: T1, BtGH84 (Bacteroides thetaiotaomicron, UniProt Q89ZI2); experiment: 4MU-GlcNAc cleavage assay (fluorescent kinetic enzyme activity assay); assay type: biochemical; details: in the presence of 4mM activator 2 versus absence
T1 construct: made in house
Description: (§1) AC50 measurements of fragment activators were performed using a fluorescent kinetic assay. Assays were carried out in a 96 well plate (Black Nunc F96 MicroWell Plates) at 25°C in a total volume of 100 μl per well, buffer (50 mM MES pH 6.5, 200 mM NaCl, 0.01% Tween-20, 1% DMSO) with 500 μM 4-methylumbelliferyl-β-D-GlcNAc (4MU-GlcNAc), as substrate and 50 nM BtGH84. Reactions were initiated by addition of 10 μl of substrate, to a final concentration of 500 μM, followed by 5 s of shaking. Fluorescent 4-methylumbelliferyl release was recorded continuously at 355 nm excitation and 460 nm emission for 20 s using a BMG PolarStar Optima plate reader. Rates were calculated using Sigmaplot as the slope of the curve of the collected data. Corrections were made to the detected gradients to adjust for the inner filter effect of 4MU-GlcNAc and convert the gradients into units of μmol min-1 according to a standard curve of 4MU. […]
Kinetic experiments using 4MU-GlcNAc were carried out in an analogous manner except that reactions were initiated by a 10 μl injection of BtGH84, to a final concentration of 50 nM, in a well containing the substrate at the desired concentration. Values quoted throughout are mean and standard deviation of three independent […]
Apparent KM and Vmax values were calculated from a Michalis-Menten curve fit to 8-10 point substrate titrations at a constant concentration of the activator. The covariation experiments used the same range of substrate concentrations across an activator concentration range of 50 µM to 2 mM. The data obtained from these experiments was fit to the nonessential activator equation: […]
Here, [S] is the concentration of the […], [A] the concentration of the activator, α modifies KM, β modifies Vmax and KA is the half-max concentration of the activator. […]

BtGH84 [2] = biological target: T1, BtGH84; experiment: Differential scanning fluorimetry (DSF); assay type: binding; details: melting temperature of BtGH84; PUGNAc 200 μM
Description: constant (Ka) were obtained from this fitting, and were used to calculate the Gibbs free energy (ΔG) and […]
Crystallisation and structure determination
BtGH84 crystals were grown using the sitting-drop vapour diffusion method. 1 μl of 12 mg/ml BtGH84 was mixed with 1 μl of reservoir solution (0.1 M imidazole pH 8.0, 10% PEG8000 (w/v), 3% trimethylamine N-oxide dehydrate, 12% ethylene glycol) and the crystals were allowed to grow at room temperature for at least 2 days. Crystal soaking was performed by gradually adding well solution containing 10 mM PUGNac and 50 mM activator 2, and 10% DMSO. Crystals were picked up with a nylon fibre loop (Hampton Research) and plunged into liquid nitrogen. Data were collected at Diamond beamline I04 using a Pilatus 6M-F detector (Dectris) at 100 K. An oscillation range of 0.1° degree was chosen and 180° were collected. Data were indexed, integrated and scaled using XDS.[5] Indexing was chosen to be consistent with previous collected data using Pointless[6] and a direct refinement of the model against the data was carried out. […] The quality of the final model was evaluated using the MolProbity-Server.[10] […]
DSF experiments were performed in 96-well polypropylene PCR plates (Agilent 401334) with a final well volume of 25 µl. […] Data was analysed with a combination of the Agilent MxPro software, MTSA,[11] and the DSF analysis spreadsheet in Excel.[12] […]

BtGH84 [3] = biological target: T1, BtGH84; experiment: Isothermal titration calorimetry (ITC); assay type: binding; details: 25°C
Description: as §1, with “4MU. The initial slopes were fitted to four-parameter sigmoidal dose response curves using SigmaPlot and the AC50 values extracted.” for “4MU.”
Apparent KM and Vmax values were calculated from a Michalis-Menten curve fit to 8-10 point substrate titrations at a constant concentration of the activator. […]

T1 sequence (Q89ZI2 22-737, change not shown): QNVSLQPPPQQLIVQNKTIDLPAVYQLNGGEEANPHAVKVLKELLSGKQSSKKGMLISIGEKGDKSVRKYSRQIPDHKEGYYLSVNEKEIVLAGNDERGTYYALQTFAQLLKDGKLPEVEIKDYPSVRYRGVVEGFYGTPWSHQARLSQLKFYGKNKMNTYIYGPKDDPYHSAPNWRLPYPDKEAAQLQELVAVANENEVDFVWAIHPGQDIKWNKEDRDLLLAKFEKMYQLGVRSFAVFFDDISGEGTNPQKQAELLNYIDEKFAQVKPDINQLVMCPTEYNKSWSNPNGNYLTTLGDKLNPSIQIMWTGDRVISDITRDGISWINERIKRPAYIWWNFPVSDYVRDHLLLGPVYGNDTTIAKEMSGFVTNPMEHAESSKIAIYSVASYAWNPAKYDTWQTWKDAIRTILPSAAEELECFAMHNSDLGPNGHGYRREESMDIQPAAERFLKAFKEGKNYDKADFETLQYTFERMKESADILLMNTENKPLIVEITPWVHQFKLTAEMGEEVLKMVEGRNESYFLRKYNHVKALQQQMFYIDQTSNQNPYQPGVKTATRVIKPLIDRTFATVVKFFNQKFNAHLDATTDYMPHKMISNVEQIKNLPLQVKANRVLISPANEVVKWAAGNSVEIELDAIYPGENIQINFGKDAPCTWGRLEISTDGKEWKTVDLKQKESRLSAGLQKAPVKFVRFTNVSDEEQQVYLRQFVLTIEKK

`CC(=O)N[C@H]1/C(=N/OC(=O)Nc2ccccc2)O[C@H](CO)[C@@H](O)[C@@H]1O` [PUGNAc, O-(2-Acetamido-2-deoxy-D-glucopyranosylidene) amino-Z-N-phenylcarbamate] was tested, and the “IC50 (change)” value (BtGH84 [1]) was “reduced”, the “increase of Tm” value (BtGH84 [2]) was 3 °C and the Kd (BtGH84 [3]; in the absence of 2) was 3900 ± 120 nM. The Kd (BtGH84 [3]; in the presence of 2 (10 mM)) was 1100 ± 240 nM.

— publication PMC4501319, “Discovery of Selective Small-Molecule Activators of a Bacterial Glycoside Hydrolase” (Angewandte Chemie (International Ed. in English), 2014)
